Assay results: article PMC8267177, “Cyclic Peptoid-Peptide Hybrids as Versatile Molecular Transporters” (Frontiers in Chemistry, 2021)
“Also recorded” adds a separate entry of the source. Non-standard residues stand in square brackets, D forms with d. Residues, ends and D or L forms follow the SMILES beside them. *: point of attachment. RhodamineB = CCN(CC)c1ccc2c(-c3ccccc3C(=O)*)c3ccc(=[N+](CC)CC)cc-3oc2c1; Nphe = O=C(O)CNCc1ccccc1; Nlys = NCCCCNCC(=O)O

How the values were obtained:
HeLa cells [1] = assay: Cellular uptake at 4 °C and 37 °C (CLSM, Figure S1); type: cell-based, human; details: 5 µM, 2 h incubation at 4 °C and 37 °C
Excerpt: The molecular transporters 15-Rhod, 20-Rhod and 22-Rhod are characterized by low cytotoxicity, efficient cellular uptake, and high specificity. Thus, they represent the most promising cyclic hybrids capable of the transport of different cargos into mitochondria. […] The capability of hydrophobic structures to function as molecular transporters is also known for so-called hydrophobic CPPs. However, only a few members of this substance class have been discovered yet. ([Xie et al., 2020]; [Desale et al., 2021]) It is assumed, that hydrophobic CPPs may penetrate cellular membranes in a direct, energy-independent manner dispensing with endocytosis. ([Gao et al., 2002]; [Gao et al., 2011]; [Nakayama et al., 2011]; [Guidotti et al., 2017]; [Tian et al., 2017]) The latter leads to a major challenge as molecular transporters might not escape the endosomes and get degraded instead of reaching their designated targets. […] The efficient internalization at a low temperature led us to the assumption that 22-Rhod might directly penetrate the cell membrane. However, the uptake mechanism of macrocyclic hybrids will be further examined.
Figure S1: Confocal Laser Scanning Microscopy (CLSM) images of HeLa cells after 2 h incubation with 5 µM peptoid 22-Rhod at 4 °C (top line, A) and 37 °C (bottom line, B). […]

HeLa cells [2] = assay: Localization assay: cellular uptake and organellar localization by confocal microscopy; type: cell-based, human; details: 5 µM, 5 h, 37 °C
Experimental: As 15-Rhod to 24-Rhod were not toxic at 5 µM the following transport experiments were carried out using this concentration. To study their cellular uptake and organellar localization, HeLa cells were treated with 5 µM of the cyclic conjugates 15-Rhod to 24-Rhod for 5 h and eventually imaged using confocal microscopy (for experimental details, see supplemental Material).
FIGURE 4 Localization of the macrocyclic conjugates 15-Rhod to 24-Rhod in HeLa cells. After incubation with a 5.0 µM solution of the respective transporters for 5 h, the cellular uptake was monitored via fluorescent confocal microscopy (Rhodamine B labeled hybrids: λ Exc = 532 nm, λ Em = 570–620 nm; MitoTracker® Green: λ Exc = 488 nm, λ Em = 490–540 nm; Hoechst 33,342: λ Exc = 405 nm, λ Em = 430–490 nm). Counterstaining with MitoTracker® Green visualized mitochondria (green). Staining with 2 μg/ml Hoechst 33,342 indicated nuclei (blue). Scale bar: 10 µm.
In an 8-well chamber slide (µ-Slide 8-Well ibidiTreat, ibidi®), 1.0 × 10^4 HeLa cells per well were cultivated for 16 h. The cyclic hybrids were diluted with DMEM to yield a 5 µM concentration. The cells were treated with the hybrids for 5 h at 37 °C. To monitor the intracellular localization, the cells were counterstained with MitoTracker® (Invitrogen) and 2 µg/mL Hoechst 33342. After washing with DPBS (3 ×), the luminescence was monitored via life-cell imaging using a Leica TCS-SPE confocal microscope (DM2500 inverse microscope, 8 Bit resolution, 1024 × 1024 pixels), equipped with a 1 Airy pinhole aperture (111.5 µm), ACS APO 63.0x/1.30 OIL UV and 40x/1.14 OIL UV objectives and the images were processed by the Leica Application Suite (LAS-AF) Version 2.1.2 build 4530 software. Images were taken with a scanning frequency of 400 Hz. Background noise was averaged by an eight-fold repetition of the scan process. The cyclic hybrids were excited at 532 nm, MitoTracker® Green at 488 nm, and Hoechst 33342 at 405 nm. The exposure was set to minimize oversaturated pixels in the final images. Fluorescence emission was measured at 570–620 nm for the detection of rhodamine B labeled hybrids, at 490–540 nm for the detection of mitochondria, and 430–490 nm for the detection of nuclei.

in vitro = type: cell-based; details: human
Experimental: The cytotoxicity of the macrocyclic hybrids 15–24, as well as their conjugates 15-Rhod to 24-Rhod, was examined using a standard MTT assay in human epithelial cervix carcinoma (HeLa) cells. […] ([Mosmann, 1983]; [Tolosa et al., 2015]) After treatment of HeLa cells with different concentrations of the respective macrocycles 15–24 (0.50─50 µM) for 72 h, no significant cytotoxic effects were observed. […] As shown by many research groups that Rhodamine B by itself is not efficiently entering the cells showing therefore an LD50 > 50 μM, we assume that this the toxicity of the Rhodamine moiety might be higher when increasingly localizing in the mitochondria to a higher amount.
In a 96-well plate (Corning® Costar® 3596 96-Well Cell Culture Cluster), 1.0 × 10^4 HeLa-cells per well of a 96 well plate were cultivated for 16 h. Stock solutions of the single compounds in dimethylsulfoxide were diluted to 0.50 µm, 5.00 µm, and 50.0 µm with cell culture medium (DMEM + 10% FBS + 1% P/S) to ensure a final concentration of DMSO below 0.5%. 100 µL of the prepared DMEM diluted compounds were added to each well and the cells were incubated for 72 h. All experiments were performed in triplicates. Cells that were solely treated with the culture medium containing 0.5% of DMSO served as a negative control. After incubation, the positive control (cells in DMSO plus 0.5% DMSO) was treated with 1% Triton-X. To determine the viability of the cells 20 µL of a freshly prepared solution of 3-(4,5-dimethylthiazol-2-yl)-2,5-diphenyltetrazolium bromide (MTT, 2.73 mg/mL, Sigma-Aldrich®) in culture medium were added to each well and incubated at 37 °C for 4 h. The reaction was stopped using 100 µL of Solubilization Solution / Stop Mix (CellTiter 96® Non-Radioactive Cell Proliferation Assay, Promega). After 24 h, the absorption (A) of every well at 595 nm was monitored using a 96-well plate reader (Ultra Microplate Reader ELx808, Biotech Instruments Inc.).

cells = details: free dye, not efficiently entering the cells; ref many research groups (reference not given); cited from earlier work
Experimental: The cytotoxicity of the macrocyclic hybrids 15–24, as well as their conjugates 15-Rhod to 24-Rhod, was examined using a standard MTT assay in human epithelial cervix carcinoma (HeLa) cells. […] ([Mosmann, 1983]; [Tolosa et al., 2015]) After treatment of HeLa cells with different concentrations of the respective macrocycles 15–24 (0.50─50 µM) for 72 h, no significant cytotoxic effects were observed.

Row | SMILES | Mitochondrial uptake at 37 °C and at 4 °C (HeLa cells [1]) | Cellular uptake efficiency (HeLa cells [2]; confocal microscopy of Rhodamine B fluorescence (Exc 532 nm, Em 570–620 nm)) | Organellar localization (mitochondria) (HeLa cells [2]; counterstaining with MitoTracker Green, confocal microscopy) | IC50 at 72 h (in vitro) | LD50 of Rhodamine B by itself (cells)
1 | CCN(CC)c1ccc2c(-c3ccccc3C(=O)NCCCCN3CC(=O)N(Cc4ccccc4)CC(=O)N(Cc4ccccc4)CC(=O)N(Cc4ccccc4)CC(=O)N[C@@H](Cc4ccccc4)C(=O)N[C@@H](Cc4ccccc4)C3=O)c3ccc(=[N+](CC)CC)cc-3oc2c1 [22-Rhod, cyclo-(l-Phe-N1ph-N1ph-N1ph-N4am(Rhod)-l-Phe)] (cyclo(FF[Nlys](RhodamineB)[Nphe][Nphe][Nphe])) | occurring at 37 °C as well as at 4 °C | efficiently taken up; also recorded: high cellular uptake efficiency | mitochondrial specificity | 44 µM | –
2 | CCN(CC)c1ccc2c(-c3ccccc3C(=O)O)c3ccc(=[N+](CC)CC)cc-3oc2c1 [Rhodamine B] | – | – | – | – | > 50 µM
